# Laboratory results taken from publication PMC5510229, “BCAT1 controls metabolic reprogramming in activated human macrophages and is associated with inflammatory diseases” (Nature Communications, 2017).
# Columns and labels:
# [1] = In vivo pharmacokinetics; set-up: species or system ICR mice; settings: ICR, mouse, plasma
# Method: The experiment was performed by Eurofins Panlabs Inc. Briefly, fasting pharmacokinetic parameters were obtained after administration of 125 mg kg^−1 i.v. or 500 mg kg^−1 p.o ERG240 to ICR mice and blood collection at 3, 10, 30, 60, 120 and 240 min (i.v. dosing) or 10, 30, 60, 120, 240 and 360 min (p.o. dosing). Each animal was subjected to a single blood draw and 3 animals per time point were used. Parameters were obtained from non-compartmental analysis of the plasma data using WinNonlin. Experimental details are provided in Supplementary Methods. […]
# In v ivo pharmaco kinetics
# ICR mice that have been fasted overnight were administered 125 mg/kg ERG240 i.v. or 500 mg/kg ERG240 p.o. At predetermined time points, mice were sedated under general inhalant anaesthesia (3 % isoflurane) and 300- 400 µL of blood were collected in tubes coated with lithium heparin by cardiac puncture . The plasma was harvested after cent rifugation and kept frozen at - 20 °C until further processing. Proteins present in the plasma were precipitated b y acetonitrile. Specificall y, 50 µL of plasm a samples were trans ferred to a 9 6-well plate and 10 µL of a acetonitrile/water 50/50 (v/v) solution was added to each well. At this point, 150 μ L of 1 ng/μ L of aspirin in acetonitrile were also added as internal standard. After sample mixing and centrifugation, 100 µL supernatant were withdrawn from each well and mixed with […] w ater for HP LC -MS/MS analysis. Sample anal ysis b y HPLC -MS/MS employed a Agilent Poroshell 120 EC-C18 column 2.7μm (3.0 x 50mm) and a gradient elution with two mobile phases (A: acetonitrile/water/formic acid 99/1/0.02 (v/v/v);
# B:acetonitrile/water/formic acid 1/99/0.02 (v/v/v)). A volume of […] of sample were injected into the column and the sample concentration was determined by employing calibration curves that were generated prior to sample anal ysis b y spiking drug- free plasma with specified concentrations of ERG240. The quantitation range was 5- 10000 ng/mL.
# Following sample analysis, plots of plasma concentration of ERG240 vs. time were constructed. Fundamental pharmacokinetic parameters were calculated from the non-compartmental analysis of the plasma data using WinNonlin. […]
# Pannus: 0=Normal; 1=Minimal infiltration of pannus in cartilage and subchondral bone; 2=Mild infiltration of pannus in cartilage with marginal zone destruction of hard tissue in affected joints; 3=Moderate infiltration of pannus in cartilage with moderate hard tissue destruction in affected joints; 4=Marked infiltration of pannus in cartilage with marked destruction of joint architecture, most joints; 5=Severe infiltration associated with total or near total destruction of joint architecture, all joints. Cartilage Damage: 0=Normal;
# [2] = test system: mouse bone marrow derived macrophages (BMDMs); experiment: BMDM transwell migration assay; format: cell-based, C57BL/6 mouse; settings: 10 hours, 10% FBS as chemo-attractant
# From the text: Figure 6 ERG240 treatment results in reduced macrophage infiltration in CIA and crescentic glomerulonephritis. (a) Inhibition of murine BMDM migration in vitro in the presence of different concentrations of ERG240 by transwell migration assay (left panel, results are presented as the average of four experiments). The drug had no effect on cell viability (right panel, results are presented as the average of three experiments). (b) IHC analysis of CIA joints for expression of F4/80. Representative images show F4/80+ cells (indicated with an arrow). F4/80+ cell quantification is shown on the right panel. (c) Representative images showing glomerular ED1 (rat CD68)-positive cells in ERG240 treated animals following NTN. Percentage of glomerular ED1-positive cell quantification is shown on the right panel. Error bars are s.e.m. […]
# The migration of BMDMs was assessed using a modified Bo yden chamber methodology. […]
# To determine the effect of ERG240 on the total number of BMDMs, cell s were plated onto a 96-well plate at a density of 5,000 cells per well in complete media and allowed to adhere overnight. The cells were then exposed to various drug concentrations overnight and the cell population was quantified with CyQuant Cell Proliferation kit (Life Technologies) using triplicates, in two independent experiments. For hMDMs, cell viability was determined using the alamarBlue® Assa y (Invitrogen). […]
compound,measurement,setting,value
CC(=O)C(C)CCC(=O)O (stereo not shown) [ERG240],AUC(0-inf),"[1]; IV 125 mg kg^−1, mice",149 µg·h/mL
same,AUC(0-t),"[1]; IV 125 mg kg^−1, mice",149 µg·h/mL
same,C0,"[1]; IV 125 mg kg^−1, mice",231 µg/mL
same,MRT,"[1]; IV 125 mg kg^−1, mice",33 min
same,clearance,"[1]; IV 125 mg kg^−1, mice",45.6 mL/min/kg
same,half-life,"[1]; IV 125 mg kg^−1, mice",7.2 min
same,AUC(0-inf),"[1]; oral 500 mg kg^−1, mice",794 µg·h/mL
same,AUC(0-t),"[1]; oral 500 mg kg^−1, mice",794 µg·h/mL
same,Cmax,"[1]; oral 500 mg kg^−1, mice",351 µg/mL
same,MRT,"[1]; oral 500 mg kg^−1, mice",74.4 min
same,Tmax,"[1]; oral 500 mg kg^−1, mice",60 min
same,bioavailability,"[1]; oral 500 mg kg^−1, mice, read-out: F (bioavailability)",100%
same,IC50,[2],5 to 10 mM
